Reference: US20140088073A1, “METHODS FOR DETERMINING WHETHER A PATIENT SHOULD BE ADMINISTERED A DRUG THAT INHIBITS CHOLESTEROL ABSORPTION” (Boston Heart Diagnostics Corporation, priority 2012, published 2014)

Tests used:
[1] = test system: hypercholesterolemic subjects; assay: EASE study post hoc analysis: plasma lipids, apolipoproteins and hs-CRP, ezetimibe add-on to ongoing statin therapy; type: in vivo, human; details: for Triglyceride / Apo A1 / Apo B / HDL-C / Non-HDL-C / Total C / Total C/HDL-C ratio / LDL-C / hs-CRP: baseline during ongoing statin therapy, by statin type; for Apo A1 / Apo B / HDL-C / Non-HDL-C / Total C / Total C/HDL-C ratio / LDL-C: mean ± SD; for LDL-C: Friedewald formula; for hs-CRP: median ± robust SD; for reductions from baseline in LDL-C / mean percent LDL-C reduction / percent LDL-C reduction from baseline: 6 weeks; for reductions from baseline in LDL-C: unadjusted data; for mean percent LDL-C reduction / percent change from baseline in LDL-C / percent change from baseline in non-HDL-C / percent change from baseline in total C/HDL-C: ezetimibe add-on
Description: (§1) Briefly, hypercholesterolemic subjects (n=874) on statins received ezetimibe 10 mg/day. Plasma lipids, lathosterol, and β-sitosterol were measured at baseline and on treatment.
(§2) This study included subjects from the ezetimibe add-on to statin arm of the EASE study (http://clinicaltrials.gov identifier NCT00092586; Study Protocol 040). Details of the study design and outcomes have been published previously. (See Pearson T A, Denke M A, McBride P E, Battisti W P, Brady W E, Palmisano J. A community-based, randomized trial of ezetimibe added to statin therapy to attain NCEP ATP III goals for LDL cholesterol in hypercholesterolemic patients: the ezetimibe add-on to statin for effectiveness (EASE) trial. Mayo Clin Proc 2005; 80:587-95; Pearson T A, Denke M A, McBride P E, et al. Effectiveness of ezetimibe added to ongoing statin therapy in modifying lipid profiles and low-density lipoprotein cholesterol goal attainment in patients of different races and ethnicities: a substudy of the Ezetimibe add-on to statin for effectiveness trial. Mayo Clin Proc 2006; 81:1177-85.)
(§3) Briefly, the EASE study was a multicenter, randomized, double-blind, placebo-controlled, 6-week parallel-group study. Participants with hypercholesterolemia were recruited from community based practices across the United States. Inclusion criteria were: 1) age ≧18 years, 2) on a stable, approved dose of any statin, 3) following a cholesterol-lowering diet for ≧6 weeks before study entry, and 4) LDL-C levels above risk-based NCEP ATP III targets. Subjects receiving lipid-altering agents other than statins during the 6 weeks before screening were excluded. Patients were randomized to receive ezetimibe 10 mg/day or placebo plus their current statin therapy and dose for 6 weeks. Statin type and dose were maintained throughout the study. The research protocol was approved by the investigational review boards at each site, and all participants provided written informed consent prior to study start.
(§4) For this current post hoc analysis, we assessed subjects who were randomized into the ezetimibe 10 mg plus statin arm of the EASE study (n=1940). Of the 1124 subjects with samples available for measurement, only those who had complete sterol and lipid data at baseline and at the end of the 6-week study were included in this analysis (n=874). The mean age and other baseline characteristics of those included and excluded from this analysis were similar. Comparison of subjects was based on statin type or potency (low, medium, high) subgroups. The low potency statin group (predicted LDL-C reduction of ˜20-30%) included subjects receiving simvastatin ≦10 mg/day, lovastatin ≦20 mg/day, pravastatin ≦20 mg/day, and fluvastatin ≦40 mg/day. The medium potency statin group (predicted LDL-C reduction of ˜31-45%) included subjects receiving simvastatin >10 to ≦40 mg/day, atorvastatin ≦20 mg/day, lovastatin >20 to 80 mg/day, pravastatin >20 to 80 mg/day, and fluvastatin >40 to 80 mg/day.
(§5) Plasma total cholesterol (total C), high-density lipoprotein cholesterol (HDL-C), and triglycerides (TG) were analyzed using standardized methods at the central laboratory of the trial (PPD Global Central Labs, Highland Heights, Kentucky, USA). LDL-C was calculated using the Friedewald formula. (See Friedewald W T, Levy R I, Fredrickson D S. Estimation of the concentration of low-density lipoprotein cholesterol in plasma, without use of the preparative ultracentrifuge. Clin Chem 1972; 18:499-502.) Non-HDL-C was calculated by subtracting HDL-C from total C. Apolipoprotein (Apo) A-I, Apo B, and high-sensitivity C-reactive protein (hs-CRP) were measured by automated immunoassays at the central laboratory. Within and between coefficients for all assays were <10%. Plasma lathosterol and β-sitosterol were quantified by gas chromatography mass spectrometry after lipid extraction as previously described in Sudhop T, Lutjohann D, Kodal A, et al. Inhibition of intestinal cholesterol absorption by ezetimibe in humans. […]

[2] = test system: patients with coronary heart disease; details: comparing sterol/cholesterol ratios; previous studies; cited from earlier work
[3] = test system: hypercholesterolemic subjects; assay: EASE study post hoc analysis: plasma lathosterol and β-sitosterol by gas chromatography mass spectrometry; type: in vivo, human; details: for B-sitosterol / B-sitosterol/Lathosterol / B-sitosterol/Total C / Lathosterol / Lathosterol/Total C: baseline during ongoing statin therapy, by statin type, mean ± SD
Description: as §1, §2, §3, §4, §5

[4] = literature; cited from earlier work
[5] = subjects with baseline sitosterol/lathosterol above the median
[6] = subjects with baseline sitosterol/lathosterol ≦ the median
[7] = overall study population, ezetimibe add-on to statin, 6 weeks

**Q.** Which Triglyceride [1] does the source give for `CC(C)c1c(C(=O)Nc2ccccc2)c(-c2ccccc2)c(-c2ccc(F)cc2)n1CC[C@@H](O)C[C@@H](O)CC(=O)O` [Atorvastatin, atorvastatin] here?
**A.** 149.0 ± 85.6 mg/dL

**Q.** And the “Apo A1” value [1]?
**A.** 156.3 ± 26.1 mg/dL

**Q.** What about the “Apo B” value [1] of the same molecule?
**A.** 129.2 ± 25.4 mg/dL

**Q.** And the HDL-C [1]?
**A.** 47.8 ± 10.7 mg/dL

**Q.** And the Non-HDL-C [1]?
**A.** 162.0 ± 33.6 mg/dL

**Q.** And the “Total C” value [1]?
**A.** 209.7 ± 35.4 mg/dL

**Q.** What about the “Total C/HDL-C ratio” value [1] of the same molecule?
**A.** 4.55 ± 1.05

**Q.** And the LDL-C [1]?
**A.** 130.0 ± 30.9 mg/dL

**Q.** What about the hs-CRP [1] of the same molecule?
**A.** 2.40 ± 3.53 mg/L

**Q.** And the “increase of plant sterols” value [2]?
**A.** 82%

**Q.** What about the “reduction of precursor sterols” value [2] of the same molecule?
**A.** −50%

**Q.** What about the B-sitosterol [3] of the same molecule?
**A.** 5.40 ± 2.93 µmol/L

**Q.** And the B-sitosterol/Lathosterol [3]?
**A.** 4.22 ± 4.39

**Q.** And the “B-sitosterol/Total C” value [3]?
**A.** 1.01 ± 0.57 μmol/mmol

**Q.** What about the Lathosterol [3] of the same molecule?
**A.** 2.20 ± 1.70 µmol/L

**Q.** And the “Lathosterol/Total C” value [3]?
**A.** 0.39 ± 0.26 μmol/mmol

**Q.** What does the source list for `CC[C@H](C)C(=O)O[C@H]1C[C@H](O)C=C2C=C[C@H](C)[C@H](CC[C@@H](O)C[C@@H](O)CC(=O)O)[C@H]21` [Pravastatin, pravastatin]?
**A.** Triglyceride [1]: 155.0 ± 80.0 mg/dL; Apo A1 [1]: 160.5 ± 28.2 mg/dL; Apo B [1]: 131.3 ± 26.0 mg/dL; HDL-C [1]: 48.6 ± 12.0 mg/dL; Non-HDL-C [1]: 166.9 ± 34.5 mg/dL; Total C [1]: 215.5 ± 34.9 mg/dL; Total C/HDL-C ratio [1]: 4.65 ± 1.25; LDL-C [1]: 133.1 ± 28.3 mg/dL; hs-CRP [1]: 2.70 ± 4.09 mg/L; B-sitosterol [3]: 4.72 ± 2.51 µmol/L; B-sitosterol/Lathosterol [3]: 2.11 ± 2.10; B-sitosterol/Total C [3]: 0.86 ± 0.48 μmol/mmol; Lathosterol [3]: 3.08 ± 1.69 µmol/L; Lathosterol/Total C [3]: 0.55 ± 0.26 μmol/mmol

**Q.** With `CCC(C)(C)C(=O)O[C@H]1C[C@@H](C)C=C2C=C[C@H](C)[C@H](CC[C@@H]3C[C@@H](O)CC(=O)O3)[C@H]21` [Simvastatin, simvastatin] as the molecule, how does the Triglyceride [1] read?
**A.** 149.0 ± 88.4 mg/dL

**Q.** And the “Apo A1” value [1]?
**A.** 157.7 ± 26.3 mg/dL

**Q.** And the “Apo B” value [1]?
**A.** 125.8 ± 23.2 mg/dL

**Q.** What about the HDL-C [1] of the same molecule?
**A.** 48.2 ± 11.8 mg/dL

**Q.** What about the Non-HDL-C [1] of the same molecule?
**A.** 157.4 ± 30.2 mg/dL

**Q.** What about the “Total C” value [1] of the same molecule?
**A.** 205.5 ± 31.4 mg/dL

**Q.** What about the “Total C/HDL-C ratio” value [1] of the same molecule?
**A.** 4.46 ± 1.10

**Q.** And the LDL-C [1]?
**A.** 124.3 ± 26.1 mg/dL

**Q.** What about the hs-CRP [1] of the same molecule?
**A.** 2.50 ± 3.81 mg/L

**Q.** What about the B-sitosterol [3] of the same molecule?
**A.** 4.33 ± 2.17 µmol/L

**Q.** What about the “B-sitosterol/Total C” value [3] of the same molecule?
**A.** 0.82 ± 0.40 μmol/mmol

**Q.** What about the Lathosterol [3] of the same molecule?
**A.** 2.47 ± 1.68 µmol/L

**Q.** And the “Lathosterol/Total C” value [3]?
**A.** 0.46 ± 0.28 μmol/mmol

**Q.** For `O=C1[C@H](CC[C@H](O)c2ccc(F)cc2)[C@@H](c2ccc(O)cc2)N1c1ccc(F)cc1` [ezetimibe], which “reduces LDL-C levels by” value [4] is on record?
**A.** 15-20%

**Q.** And the “LDL-C lowered by” value ([1]; addition of ezetimibe to any statin)?
**A.** 23-26%

**Q.** And the “reductions from baseline in LDL-C” value ([1]; ezetimibe 10 mg/day added to ongoing high potency statin)?
**A.** −29.1%

**Q.** And the “reductions from baseline in LDL-C” value ([1]; ezetimibe 10 mg/day added to ongoing low potency statin)?
**A.** −22.7%

**Q.** What about the “reductions from baseline in LDL-C” value ([1]; ezetimibe 10 mg/day added to ongoing medium potency statin) of the same molecule?
**A.** −25.0%

**Q.** What about the “mean percent LDL-C reduction” value ([1]; high potency statin group) of the same molecule?
**A.** 29.1%

**Q.** And the “mean percent LDL-C reduction” value ([1]; low potency statin group)?
**A.** 22.7%

**Q.** What about the “mean percent LDL-C reduction” value ([1]; medium potency statin group) of the same molecule?
**A.** 25.0%

**Q.** What about the “percent change from baseline in LDL-C” value [1, 5] of the same molecule?
**A.** −26.7%

**Q.** What about the “percent change from baseline in non-HDL-C” value [1, 5] of the same molecule?
**A.** −24.2%

**Q.** What about the “percent change from baseline in total C/HDL-C” value [1, 5] of the same molecule?
**A.** −19.0%

**Q.** What about the “percent change from baseline in LDL-C” value [1, 6] of the same molecule?
**A.** −24.1%

**Q.** And the “percent change from baseline in non-HDL-C” value [1, 6]?
**A.** −21.6%

**Q.** What about the “percent change from baseline in total C/HDL-C” value [1, 6] of the same molecule?
**A.** −17.0%

**Q.** And the “percent LDL-C reduction from baseline” value ([1]; ezetimibe combination with ongoing atorvastatin)?
**A.** 26.4%

**Q.** And the “percent LDL-C reduction from baseline” value ([1]; ezetimibe combination with ongoing lovastatin or fluvastatin)?
**A.** 24.1%

**Q.** And the “percent LDL-C reduction from baseline” value ([1]; ezetimibe combination with ongoing pravastatin)?
**A.** 23.1%

**Q.** What about the “percent LDL-C reduction from baseline” value ([1]; ezetimibe combination with ongoing simvastatin) of the same molecule?
**A.** 26.4%

**Q.** And the “mean lathosterol levels increased by” value [3, 7]?
**A.** 52%

**Q.** And the “mean lathosterol/cholesterol ratio increased by” value [3, 7]?
**A.** 83.8%

**Q.** What about the “mean β-sitosterol levels decreased by” value [3, 7] of the same molecule?
**A.** 47.4%

**Q.** And the “mean β-sitosterol/cholesterol ratio decreased by” value [3, 7]?
**A.** 36.3%

**Q.** And the “overall percent change in the mean β-sitosterol/lathosterol ratio” value [3, 7]?
**A.** −52.4%
